The results in this text go back to patent US12600709B2, “Nonpeptide somatostatin type 5 receptor agonists and uses thereof” (Crinetics Pharmaceuticals, Inc., priority 2019, dated 2026).

For assay [1], the target named is T1, human somatostatin receptor subtype 5 (Homo sapiens, UniProt P35346).
T1 construct: expressed in transfected cells
As to the kind of experiment: cAMP assay for SST5R (inhibition of cAMP in CHO-K1 cells). The assay is classed as cell-based. The settings on record: for EC50: inhibition of cAMP via human SST5 receptor, read-out: SST5 potency; for Fold selectivity for SST5 vs SST2: class symbols, SST5 receptor over SST2 receptor. In a few lines:
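CHO-K1 cells stably expressing human SSTR5 were treated 20 min at 37 °C with compounds plus 1.6 μM NKH477 in HBSS, 0.5 mM HEPES pH 7.4, 0.1% BSA, 0.2 mM IBMX. Lysate cAMP measured by HTRF against a standard curve; EC50 from cAMP-versus-concentration plots.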

In assay [2] the target is T2, human somatostatin receptor subtype 2 (Homo sapiens, UniProt P30874).
T2 construct: expressed in transfected cells
Put plainly: cAMP assay for SST2R (inhibition of cAMP in CHO-K1 cells). The assay is classed as cell-based. Conditions: Table B; inhibition of cAMP via human SST2 receptor; read-out: SST2 potency. In a few lines: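 CHO-K1 cells stably expressing human SSTR2, plated 4 days prior, treated 20 min at 37° C with 1.6 μM NKH477 plus compound dilutions in HBSS/HEPES pH 7.4/0.1% BSA/0.2 mM IBMX. Lysate cAMP measured by HTRF against standard curve; EC50 from concentration-response.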
Background: cAMP levels reflect the balance of adenylyl cyclase and phosphodiesterase activity.

Like-named read-outs stand apart in the source and are kept apart here.

T2 sequence (P30874 whole entry): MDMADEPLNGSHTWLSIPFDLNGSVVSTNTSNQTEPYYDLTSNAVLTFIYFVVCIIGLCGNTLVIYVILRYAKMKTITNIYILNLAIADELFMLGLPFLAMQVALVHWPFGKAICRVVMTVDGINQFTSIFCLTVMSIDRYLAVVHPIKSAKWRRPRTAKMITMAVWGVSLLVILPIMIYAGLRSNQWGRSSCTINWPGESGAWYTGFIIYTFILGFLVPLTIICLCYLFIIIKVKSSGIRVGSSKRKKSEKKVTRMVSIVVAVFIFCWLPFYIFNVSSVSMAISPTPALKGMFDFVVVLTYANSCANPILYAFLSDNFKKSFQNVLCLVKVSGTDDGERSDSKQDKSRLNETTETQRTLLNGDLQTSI
T1 sequence (P35346 whole entry): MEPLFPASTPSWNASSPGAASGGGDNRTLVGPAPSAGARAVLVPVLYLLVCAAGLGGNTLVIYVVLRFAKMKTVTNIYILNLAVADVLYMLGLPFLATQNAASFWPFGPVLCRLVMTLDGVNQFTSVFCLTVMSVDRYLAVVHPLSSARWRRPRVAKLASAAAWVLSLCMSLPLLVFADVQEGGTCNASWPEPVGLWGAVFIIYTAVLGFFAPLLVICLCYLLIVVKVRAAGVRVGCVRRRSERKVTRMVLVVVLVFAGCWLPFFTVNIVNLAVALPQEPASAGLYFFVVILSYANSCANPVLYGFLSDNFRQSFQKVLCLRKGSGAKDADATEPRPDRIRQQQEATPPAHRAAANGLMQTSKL

As for `C[C@]1(N)CCN(c2c(C(=O)NC3CC(F)(F)C3)cnc(C#N)c2-c2cc(F)cc(F)c2)C1` [1-79, 4-[(3S)-3-amino-3-methylpyrrolidin-1-yl]-6-cyano-N-(3,3-difluorocyclobutyl)-5-(3,5-difluorophenyl)pyridine-3-carboxamide], the EC50 in assay [1] (Table A) was below 10 nM; in assay [1] (Table B) it was below 10 nM; in assay [2], 100 to 1000 nM. Moreover, the “Fold selectivity for SST5 vs SST2” value in assay [1] (Table B) is “+++ (+++=>500)”.

For `COc1ncc(C(=O)N[C@@H](C)C(F)(F)F)c(N2CC[C@](C)(N)C2)c1-c1cc(F)cc(Cl)c1` [1-228, 4-[(3S)-3-amino-3-methylpyrrolidin-1-yl]-5-(3-chloro-5-fluorophenyl)-6-methoxy-N-[(2S)-1,1,1-trifluoropropan-2-yl]pyridine-3-carboxamide], the EC50 in assay [1] (Table A) was below 10 nM; in assay [1] (Table B), below 10 nM; in assay [2] it was 10 to 100 nM. Moreover, the “Fold selectivity for SST5 vs SST2” value in assay [1] (Table B) is listed as “+++ (+++=>500)”.

For `Cc1cc(F)cc(-c2cncc(C(=O)NC3CCC(F)(F)CC3)c2N2CC[C@](C)(N)C2)c1` [1-13, 4-[(3S)-3-amino-3-methylpyrrolidin-1-yl]-N-(4,4-difluorocyclohexyl)-5-(3-fluoro-5-methylphenyl)pyridine-3-carboxamide], the EC50 in assay [1] (Table A) was below 10 nM; in assay [1] (Table B) it was below 10 nM; in assay [2], 100 to 1000 nM. In addition, the “Fold selectivity for SST5 vs SST2” value in assay [1] (Table B) is given as “+++ (+++=>500)”.

`Cc1cccc(NC(=O)c2cncc(-c3ccnc(C#N)c3)c2N2CC[C@](C)(N)C2)c1` [1-5, 4-[(3S)-3-amino-3-methylpyrrolidin-1-yl]-2′-cyano-N-(3-methylphenyl)-[3,4′-bipyridine]-5-carboxamide]: the results for the EC50 in assay [1] (Table A), in assay [1] (Table B) and in assay [2] were below 10 nM, below 10 nM and 100 to 1000 nM, respectively. In assay [1] (Table B), the “Fold selectivity for SST5 vs SST2” value is listed as “+++ (+++=>500)”.

`C[C@]1(N)CCN(c2c(C(=O)NC3CCC(F)(F)CC3)cncc2-c2cc(F)cc(F)c2)C1` [1-16, 4-[(3S)-3-amino-3-methylpyrrolidin-1-yl]-N-(4,4-difluorocyclohexyl)-5-(3,5-difluorophenyl)pyridine-3-carboxamide]: the EC50 was below 10 nM in assay [1] (Table A), below 10 nM in assay [1] (Table B) and 100 to 1000 nM in assay [2]. For the same compound, the “Fold selectivity for SST5 vs SST2” value in assay [1] (Table B) is “+++ (+++=>500)”.

As for `C[C@]1(N)CCN(c2c(C(=O)NC34CC(F)(C3)C4)cnc(C(F)(F)F)c2-c2cc(F)cc(F)c2)C1` [1-217, 4-[(3S)-3-amino-3-methylpyrrolidin-1-yl]-5-(3,5-difluorophenyl)-N-{3-fluorobicyclo[1.1.1]pentan-1-yl}-6-(trifluoromethyl)pyridine-3-carboxamide], the figures for the EC50 in assay [1] (Table A), in assay [1] (Table B) and in assay [2] were below 10 nM, below 10 nM and 100 to 1000 nM, respectively. For the same compound, the “Fold selectivity for SST5 vs SST2” value in assay [1] (Table B) is given as “+++ (+++=>500)”.

Regarding `CCOc1ncc(C(=O)N[C@@H](C)C2CC2)c(N2CC[C@](C)(N)C2)c1-c1cc(F)cc(F)c1` [1-176, 4-[(3S)-3-amino-3-methylpyrrolidin-1-yl]-N-[(1S)-1-cyclopropylethyl]-5-(3,5-difluorophenyl)-6-ethoxypyridine-3-carboxamide], the results for the EC50 in assay [1] (Table A), in assay [1] (Table B) and in assay [2] were below 10 nM, below 10 nM and 100 to 1000 nM, respectively. Further, the “Fold selectivity for SST5 vs SST2” value in assay [1] (Table B) is listed as “+++ (+++=>500)”.

On to `Cc1cc(F)cc(-c2cncc(C(=O)NC(C3CC3)C3CC3)c2N2CC[C@](C)(N)C2)c1` [1-25, 4-[(3S)-3-amino-3-methylpyrrolidin-1-yl]-N-(dicyclopropylmethyl)-5-(3-fluoro-5-methylphenyl)pyridine-3-carboxamide], for which the EC50 is below 10 nM in assay [1] (Table A), below 10 nM in assay [1] (Table B) and 100 to 1000 nM in assay [2]. Also, the “Fold selectivity for SST5 vs SST2” value in assay [1] (Table B) is on record as “+++ (+++=>500)”.

Turning to `Cc1cccc2[nH]c(-c3cncc(C(=O)NC4CCCCC4)c3N3CC[C@](C)(N)C3)nc12` [2-38, 4-[(3S)-3-amino-3-methylpyrrolidin-1-yl]-N-cyclohexyl-5-(4-methyl-1H-1,3-benzodiazol-2-yl)pyridine-3-carboxamide], the EC50 in assay [1] (Table A) is below 10 nM; in assay [1] (Table B), below 10 nM; in assay [2] it was 100 to 1000 nM. In assay [1] (Table B), the “Fold selectivity for SST5 vs SST2” value was “+ (+=10 to 99)”.

`CCCCNC(=O)c1cnc(C#N)c(-c2ccnc(C(F)(F)F)c2)c1N1CC[C@](C)(N)C1` [1-251, 4-[(3S)-3-amino-3-methylpyrrolidin-1-yl]-N-butyl-2-cyano-2′-(trifluoromethyl)-[3,4′-bipyridine]-5-carboxamide]: the EC50 in assay [1] (Table A) is below 10 nM; in assay [1] (Table B), below 10 nM; in assay [2] it was above 1000 nM. For the same compound, the “Fold selectivity for SST5 vs SST2” value in assay [1] (Table B) is recorded as “+++ (+++=>500)”.

As to `Cc1ncc(C(=O)N[C@@H](C)C2CC2)c(N2CC[C@](C)(N)C2)c1-c1cc(F)cc(C#N)c1` [1-123, 4-[(3S)-3-amino-3-methylpyrrolidin-1-yl]-5-(3-cyano-5-fluorophenyl)-N-[(1S)-1-cyclopropylethyl]-6-methylpyridine-3-carboxamide], the EC50 was below 10 nM in assay [1] (Table A), below 10 nM in assay [1] (Table B) and 100 to 1000 nM in assay [2]. In addition, in assay [1] (Table B), the “Fold selectivity for SST5 vs SST2” value is on record as “+++ (+++=>500)”.

In the case of `CCOC(=O)CCOc1ncc(C(=O)NC2CCC(F)(F)CC2)c(N2CC[C@H](N)C2)c1-c1cc(F)cc(F)c1` [1-201, ethyl 3-({4-[(3S)-3-aminopyrrolidin-1-yl]-5-[(4,4-difluorocyclohexyl)carbamoyl]-3-(3,5-difluorophenyl)pyridin-2-yl}oxy)propanoate], the EC50 in assay [1] (Table A) was below 10 nM; in assay [1] (Table B) it was below 10 nM; in assay [2], above 1000 nM. Besides, in assay [1] (Table B), the “Fold selectivity for SST5 vs SST2” value is reported as “+++ (+++=>500)”.

In the case of `COc1ncc(C(=O)N[C@@H](C)C(F)(F)F)c(N2CC[C@H](N)C2)c1-c1cc(F)cc(Cl)c1` [1-283, 4-[(3S)-3-aminopyrrolidin-1-yl]-5-(3-chloro-5-fluorophenyl)-6-methoxy-N-[(2S)-1,1,1-trifluoropropan-2-yl]pyridine-3-carboxamide], the EC50 in assay [1] (Table A) was below 10 nM; in assay [1] (Table B) it was below 10 nM; in assay [2], 100 to 1000 nM. Moreover, in assay [1] (Table B), the “Fold selectivity for SST5 vs SST2” value is on record as “+++ (+++=>500)”.

Regarding `C[C@@H](NC(=O)c1cncc(-c2cc(F)cc(F)c2)c1N1CC[C@](C)(N)C1)C1CC1` [1-44, 4-[(3S)-3-amino-3-methylpyrrolidin-1-yl]-N-[(1R)-1-cyclopropylethyl]-5-(3,5-difluorophenyl)pyridine-3-carboxamide], the results for the EC50 in assay [1] (Table A), in assay [1] (Table B) and in assay [2] were below 10 nM, below 10 nM and 100 to 1000 nM, respectively. Also, the “Fold selectivity for SST5 vs SST2” value in assay [1] (Table B) is reported as “++ (++=100 to 499)”.

`C[C@]1(N)CCN(c2c(C(=O)NC3CCC3)cnc(C#N)c2-c2cc(F)cc(F)c2)C1` [1-87, 4-[(3S)-3-amino-3-methylpyrrolidin-1-yl]-6-cyano-N-cyclobutyl-5-(3,5-difluorophenyl)pyridine-3-carboxamide]: the EC50 in assay [1] (Table A) was below 10 nM; in assay [1] (Table B), below 10 nM; in assay [2], 100 to 1000 nM. The “Fold selectivity for SST5 vs SST2” value in assay [1] (Table B) is given as “+++ (+++=>500)”.

In the case of `Cc1ncc(C(=O)N[C@@H](C)C2CC2)c(N2CC[C@](C)(N)C2)c1-c1cncc(Cl)c1` [1-158, 4-[(3S)-3-amino-3-methylpyrrolidin-1-yl]-5′-chloro-N-[(1S)-1-cyclopropylethyl]-2-methyl-[3,3′-bipyridine]-5-carboxamide], the EC50 in assay [1] (Table A) was below 10 nM; in assay [1] (Table B), below 10 nM; in assay [2], above 1000 nM. For the same compound, in assay [1] (Table B), the “Fold selectivity for SST5 vs SST2” value is reported as “+++ (+++=>500)”.

Regarding `N#Cc1ncc(C(=O)NC23CC(C2)C3)c(N2CC[C@H](N)C2)c1-c1ccc(F)c(F)c1` [1-66, 4-[(3S)-3-aminopyrrolidin-1-yl]-N-{bicyclo[1.1.1]pentan-1-yl}-6-cyano-5-(3,4-difluorophenyl)pyridine-3-carboxamide], the EC50 in assay [1] (Table A) is below 10 nM; in assay [1] (Table B), below 10 nM; in assay [2], above 1000 nM. In addition, the “Fold selectivity for SST5 vs SST2” value in assay [1] (Table B) was “+++ (+++=>500)”.

As for `Cc1ncc(C(=O)N[C@@H](C)C(F)(F)F)c(N2CC[C@H](N)C2)c1-c1cccc(OC(F)F)c1` [1-232, 4-[(3S)-3-aminopyrrolidin-1-yl]-5-[3-(difluoromethoxy)phenyl]-6-methyl-N-[(2S)-1,1,1-trifluoropropan-2-yl]pyridine-3-carboxamide], the EC50 in assay [1] (Table A) was below 10 nM; in assay [1] (Table B) it was below 10 nM; in assay [2] it was above 1000 nM. Moreover, the “Fold selectivity for SST5 vs SST2” value in assay [1] (Table B) is recorded as “+++ (+++=>500)”.

Turning to `C[C@H](NC(=O)c1cnc(OCC(F)F)c(-c2cc(F)cc(F)c2)c1N1CC[C@](C)(N)C1)C1CC1` [1-177, 4-[(3S)-3-amino-3-methylpyrrolidin-1-yl]-N-[(1S)-1-cyclopropylethyl]-6-(2,2-difluoroethoxy)-5-(3,5-difluorophenyl)pyridine-3-carboxamide], the EC50 in assay [1] (Table A) is below 10 nM; in assay [1] (Table B) it was below 10 nM; in assay [2], 10 to 100 nM. Moreover, the “Fold selectivity for SST5 vs SST2” value in assay [1] (Table B) was “+++ (+++=>500)”.

Turning to `C[C@]1(N)CCN(c2c(C(=O)NC3CCCC3)cnc(C#N)c2-c2ccnc(C(F)(F)F)c2)C1` [1-248, 4-[(3S)-3-amino-3-methylpyrrolidin-1-yl]-2-cyano-N-cyclopentyl-2′-(trifluoromethyl)-[3,4′-bipyridine]-5-carboxamide], the EC50 in assay [1] (Table A) is below 10 nM; in assay [1] (Table B), below 10 nM; in assay [2], above 1000 nM. Moreover, in assay [1] (Table B), the “Fold selectivity for SST5 vs SST2” value is “+++ (+++=>500)”.
